Data as given in paper PMC6817585, “Simultaneous Determination of Five Alkaloids by HPLC-MS/MS Combined With Micro-SPE in Rat Plasma and Its Application to Pharmacokinetics After Oral Administration of Lotus Leaf Extract” (Frontiers in Pharmacology, 2019).

Key:
[1] = Stability of analytes in rat plasma QC samples (auto-sampler, freeze-thaw, short-time, long-term); type: in vitro ADME; details: rat, plasma
Experimental: (§1) The stabilities (including auto-sampler, freeze–thaw cycles, and short-time and long-term stability) of all analytes were obtained by testing QC samples of four concentrations. Moreover, the stabilities for stock and working solution were assessed with mixed standard substance (100 ng·ml^−1) and the QC sample solutions of four concentration levels, respectively. These solutions were achieved by diluting stock solutions kept at 4°C for 2 weeks. For IS, the evaluated procedures of two stabilities were same as the five alkaloids.

[2] = Pharmacokinetics of five alkaloids in rat plasma after oral administration of lotus leaf extract; type: in vivo, Male Sprague-Dawley rats; details: rat, in vivo, po; for AUC / AUC(0-inf) / Cmax / MRT / MRT inf / Tmax / half-life: male, Sprague-Dawley
Experimental: All analyses were performed on Agilent 1200 HPLC system (Agilent Corporation, USA) and API 3200 triple-quadrupole mass spectrometer (Concord, Ontario, Canada) in multiple-reaction monitoring (MRM) with positive ionization mode. Acetonitrile (A) and formic acid aqueous solution (B) (0.1%, v/v) is used to separate the analytes on Eclipse plus C18 column (4.6 mm × 100 mm, 1.8 µm) with a guard C18 column (2.1 mm × 12.5 mm, 5 µm). The gradient of elution is as follows: 5%–60% A at 0 to 4 min, 60%–70% A at 4 to 5 min, 70%–93% A at 5 to 7 min, 93%–94% A at 7 to 11 min, 94%–5% A at 11 to 12 min, and 5%–5% A at 12 to 17 min. The flow rate and injection volume are 0.3 ml·min^-1 and 5 µl, respectively. The main parameters of ion source including the ion spray voltage, the curtain gas, and temperature are set at 5000 V, 35 psi, and 450°C, respectively.
The real plasma sample (100 µl) and IS solution (10 µl) were vortex-mixed for 1 min. The sample was carried out with the SPE column (Cleanert PEP-2, 40–60 µm, 60 Å, 10 mg/1 ml; Phenomenex, Torrance, CA, USA). First, SPE columns were activated by 50% methanol in water (1 ml) and 0.1% formic acid in water (1 ml) and were used to activate the SPE column in sequence. Second, columns were washed with 200 µl methanol (20%, v/v) and eluted with acetonitrile (400 µl) after the plasma samples were added. Finally, the eluent was centrifuged for 10 min with 14,000 rpm. Then final solutions were injected into the HPLC-MS/MS and analyzed.
The pharmacokinetic study was conducted in accordance with the Guidelines for the Care and Use of Laboratory Animals by the US National Institutes of Health and approved by the Animal Ethics Committee of Tianjin University of Traditional Chinese Medicine (permit number: TCM-LAEC2019022, Tianjin, China),. Male Sprague-Dawley rats (240–260 g) were fed in the animal laboratory of the Tianjin University of Traditional Chinese Medicine under the standard conditions. These rats were allowed free to get standard laboratory food and water and conformed for 1 week until 12 h before experiment. These rats (n = 10) were fasted, although they were still given water for 12 h, before the oral administration of lotus leaf extract. […] The plasma samples were centrifuged in 10 min at 7000 rpm and kept at −20°C until analyzed.
All of the pharmacokinetic parameters were calculated by one compartment model with DAS 1.0 software (Medical College of Wannan). The maximum drug concentration (Cmax) and the time to reach Cmax (Tmax) were acquired from observed concentration–time profile for oral administration in plasma. All data were shown as mean ± SD.

[3] = Stability of stock and working solutions; type: physicochemical; details: working solution, n = 6
Experimental: as §1

[4] = concentration LLOQ, from stock kept at 4°C for 2 weeks

| Remain, freeze thaw cycles [1] | Remain, freeze thaw cycles ([1]; 100 ng/ml) | Remain, −80°C for 1 month [1] | Remain, −80°C for 1 month ([1]; 100 ng/ml) | Remain, autosampler for 24 h [1] | Remain, room temperature for 24 h [1] | Remain, autosampler for 24 h ([1]; 100 ng/ml) | Remain, room temperature for 24 h ([1]; 100 ng/ml) | AUC ([2]; 2.4 g/kg) | AUC(0-inf) ([2]; 2.4 g/kg) | Cmax ([2]; 2.4 g/kg) | MRT ([2]; 2.4 g/kg) | MRT inf ([2]; 2.4 g/kg) | Tmax ([2]; 2.4 g/kg) | half-life ([2]; 2.4 g/kg) | Absorption after orally administrating the lotus leaf extract (in words) [2] | Remain, working solution ([3]; 100 ng/ml) | Remain, working solution [3, 4] | SMILES | also measured |
| --- | --- | --- | --- | --- | --- | --- | --- | --- | --- | --- | --- | --- | --- | --- | --- | --- | --- | --- | --- |
| 81.9% | 85.5% | 99.2% | 93.9% | 85.5% | 89.2% | 92.6% | 98.9% | 2030 ± 717 ng·h/mL | 2100 ± 704 ng·h/mL | 210 ± 87 ng/mL | 7.43 ± 1.18 h | 8.36 ± 1.98 h | 4.9 ± 1.37 h | 266 ± 113 min | slow absorption | 99.9% | 99.3% | COc1cc2c3c(c1OC)C1(C=CC(=O)C=C1)C[C@H]3N(C)CC2 [Pronuciferine, pronuciferine] | Remain, freeze thaw cycles ([1]; 2 ng/ml): 93.3%; Remain, freeze thaw cycles ([1]; 500 ng/ml): 87.2%; Remain, −80°C for 1 month ([1]; 2 ng/ml): 99.0%; Remain, −80°C for 1 month ([1]; 500 ng/ml): 90.4%; Remain, autosampler for 24 h ([1]; 2 ng/ml): 88.3%; Remain, room temperature for 24 h ([1]; 2 ng/ml): 106%; Remain, autosampler for 24 h ([1]; 500 ng/ml): 87.5%; Remain, room temperature for 24 h ([1]; 500 ng/ml): 87.1%; Plasma exposure (in words) [2]: abundant plasma exposure; AUCs(0–24 h) ([2]; 2.4 g/kg): 2030 ± 716 ng·h/mL; Remain, working solution ([3]; 2 ng/ml): 92.9%; Remain, working solution ([3]; 500 ng/ml): 105% |
| 103% | 85.2% | 109% | 107% | 87.6% | 91.5% | 87.4% | 110% | 28.6 ± 16.5 ng·h/mL | 53.8 ± 34.6 ng·h/mL | 8.78 ± 7.78 ng/mL | 7.23 ± 1.93 h | 31.9 ± 25.9 h | 0.3 ± 0.11 h | 313 ± 305 min | fast absorption | 101% | 96.3% | COc1cc2c(cc1OC)C(Cc1ccc(O)cc1)N(C)CC2 (stereo not shown) [Armepavine, armepavine] | Remain, freeze thaw cycles ([1]; 1 ng/ml): 107%; Remain, freeze thaw cycles ([1]; 20 ng/ml): 111%; Remain, −80°C for 1 month ([1]; 1 ng/ml): 107%; Remain, −80°C for 1 month ([1]; 20 ng/ml): 113%; Remain, autosampler for 24 h ([1]; 1 ng/ml): 90.8%; Remain, room temperature for 24 h ([1]; 1 ng/ml): 104%; Remain, autosampler for 24 h ([1]; 20 ng/ml): 114%; Remain, room temperature for 24 h ([1]; 20 ng/ml): 118%; Remain, working solution ([3]; 1 ng/ml): 98.8%; Remain, working solution ([3]; 20 ng/ml): 95.8% |
